Paper PMC12524408 (International Journal of Molecular Sciences, 2025)

Key:
DSS-induced colitis = assay: Dose-dependent study of intravenous PEG-AM in DSS-induced colitis (Study No. P170454); format: in vivo, mouse; conditions: 1, 5, 25 nmol/kg single i.v. one day before 3% DSS (MW 5000); vs vehicle; n = 10 per group
Procedure: We examined the effects of intravenous administration of PEG-AM on DSS-induced colitis, as per the experimental design in Figure 4a. PEG-AM was administered one day before DSS exposure to evaluate its prophylactic effect against colitis onset and progression.  Figure 4 Dose-dependent effects of intravenous PEG-AM administration in DSS-induced colitis (Study No. P170454). (a) Overview of the experimental design. Groups: vehicle (n = 10), PEG-AM 1 nmol/kg (n = 10), 5 nmol/kg (n = 10), 25 nmol/kg (n = 10). (b) Total inflammation scores on day 8. (c) Colon length. (d) Colon weight-to-length ratio. (e) PEG-AM plasma concentrations on day 8. To evaluate the pharmacological effects of PEG-AM, three animal studies were conducted by the LSI Medience Corporation following the Animal Welfare Act and institutional approval. Seven-week-old male C57BL/6J JCL mice (CLEA Japan, Inc., Tokyo, Japan) were used in all studies and were housed under pathogen-free conditions. Colitis was induced with 3% (w/v) DSS (MW 5000) in drinking water for seven days. PEG-AM (1.0, 5.0, and 25 nmol/kg) or saline (control) was administered intravenously one day before DSS treatment. Each group included 10 mice. Stool consistency, bleeding, and body weight were evaluated on days −1, 0, 3, 5, and 7. A total inflammation score was calculated. Mice were anesthetized with 3% isoflurane (Zoetis Japan, Tokyo, Japan), and the colon was excised on day 7.

RAMP1, RAMP2, RAMP3, CLR = assay: Gene expression of receptor components in distal colon, Study No. P200487; format: in vivo, mouse; conditions: 25 and 250 nmol/kg i.v., day 12, qPCR
Source text: Figure 6 Therapeutic effects of PEG-AM administered after disease onset in DSS-induced colitis (Study No. P200487). (a) Overview of the experimental design. Groups: vehicle (n = 6), PEG-AM 25 nmol/kg (n = 6), 250 nmol/kg (n = 6). (b) Time course of total inflammation scores after PEG-AM administration. (c) Colon length, * p < 0.05, one-way ANOVA followed by Dunnett’s multiple-comparisons test. ns, not significant. (d) Colon weight-to-length ratio, * p < 0.05, one-way ANOVA followed by Dunnett’s multiple-comparisons test. ns, not significant. (e) PEG-AM plasma concentrations on day 12. (f–i) Fold changes in gene expression of RAMP1 (f), RAMP2 (g), RAMP3 (h), and CLR (i).
After measuring colon length and weight, distal colon tissue was collected, immersed in RNAlater (Thermo Fisher Scientific K.K.), and stored at −80 °C until RNA extraction. Total RNA was extracted using the RNeasy Micro Kit (Qiagen, Singapore) and quantified using a DeNovix DS-11 Microvolume Spectrophotometer. cDNA was synthesized from 2 μg of total RNA using a high-capacity cDNA Reverse Transcription Kit (Thermo Fisher Scientific K.K.). Quantitative PCR was performed using the StepOnePlus Real-Time PCR System (Applied Biosystems, Waltham, MA, USA) and TaqMan Gene Expression Assays for mouse RAMP1, RAMP2, RAMP3, CLR (CALCRL), and GAPDH (internal control). […]

Receptor component expression (RAMP1, RAMP2, RAMP3, CLR) (RAMP1, RAMP2, RAMP3, CLR): No downregulation
Substance: 40 kDa PEGylated adrenomedullin [PEG-AM]
Colon length (DSS-induced colitis): comparable across all groups | Colon weight per unit length (DSS-induced colitis): no significant differences | Total inflammation score on day 8 (DSS-induced colitis): no statistically significant differences | RAMP2 expression (RAMP1, RAMP2, RAMP3, CLR): increased in a dose-dependent manner; however, the increase was not statistically significant
